Like-named read-outs stand apart in the source and are kept apart here.
What was measured:
[1] = Phase 1 food effect study A, single 3 mg dose, healthy adults (Example 6); assay type: in vivo, human; details: for AUC(0-inf) / Cmax / half-life: human, in vivo, oral, 3 mg; for AUC(0-inf): read-out: AUC(0-∞), geometric LS mean (geometric CV %); for Cmax: read-out: Cmax, geometric LS mean (geometric CV %); for half-life: read-out: T1/2, geometric mean (range) (converted)
[2] = Phase 1 food effect study B, 16 mg daily dose reached by weekly escalation, healthy adults (Example 6); assay type: in vivo, human; details: for AUC(0-t): read-out: AUC(0-24), geometric LS mean (geometric CV %); for Cmax: read-out: Cmax, geometric LS mean (geometric CV %)
[3] = assay type: in vivo, human; details: for percentage of patients who attained an HbA1c of 7% or less: 26 weeks
Description: Two Phase 2 studies have evaluated the safety and efficacy of Compound 1a for the treatment of T2D and another for treatment of obesity or overweight with at least one weight related comorbidity.
The 36 and 45 mg cohorts were subdivided in a 36 mg-1 and 36 mg-2 as well as 45 mg-1 and 45 mg-2 respectively, as different starting doses, dose escalations and dose escalation steps were investigated in these subgroup cohorts (FIG. 4).
Eligible male or female participants were >18 years of age with T2D with a HbA1c 7.0% to 10.5% and a body mass index (BMI) of ≥23 kg/m2, treated with diet and exercise alone or with a stable dose of metformin and with a stable body weight (≤5% body weight gain and/or loss) for at least 3 months prior to screening/Visit 1.
The study period included a 2-week screening/lead in period and a 26-week treatment period. During the treatment period, doses were escalated for all treatment groups. The dose escalation period ranged from 4 to 12 weeks depending on dose group. The initial dose was 2 or 3 mg followed by additional escalation steps depending on assigned cohort (FIG. 4). […] All participants were provided healthy eating and exercise education by study personnel throughout the trial.
Key Safety and tolerability endpoints included the frequency of patient- and investigator-reported adverse events, rate and incidence of hypoglycaemia events (glucose <70 mg/dL [3.9 mmol/L] and ≥54 mg/dL [3.0 mmol/L], or glucose <54 mg/dL [3.0 mmol/L]), and change in safety laboratory parameters, electrocardiogram, and vital signs.
The estimand used for efficacy analyses was an “efficacy estimand”, representing the average treatment effect for the randomized population if the treatment was administered as intended, thus including data from all randomized participants who received at least one dose of study drug and excluding data after permanent discontinuation of study drug. All tests of treatment effects were conducted at a 2-sided alpha level of 0.05 without adjustment for multiple comparisons, and 2-sided 95% CIs were calculated.
Safety analyses were conducted by comparing safety of OFG with placebo and with dulaglutide irrespective of adherence to study drug. The safety analyses were conducted using the safety analysis set, which includes all randomized participants who received at least one dose of study drug. The results were presented in summary statistics, point estimates, and 95% confidence intervals along with p-values for treatment comparisons.

[4] = human, in vivo, oral, 16 mg, STUDY B - 16 mg (with titration), Fasted
[5] = human, in vivo, oral, 16 mg, STUDY B - 16 mg (with titration), Fed

Molecule: Cc1cc(-n2nc3c(c2-n2ccn(-c4ccc5c(cnn5C)c4F)c2=O)[C@H](C)N(C(=O)c2cc4cc([C@H]5CCOC(C)(C)C5)ccc4n2[C@@]2(c4noc(=O)[nH]4)C[C@@H]2C)CC3)cc(C)c1F [OFG, 3-[(1S,2S)-1-[5-[(4S)-2,2-dimethyloxan-4-yl]-2-[(4S)-2-(4-fluoro-3,5-dimethylphenyl)-3-[3-(4-fluoro-1-methylindazol-5-yl)-2-oxoimidazol-1-yl]-4-methyl-6,7-dihydro-4H-pyrazolo[4,3-c]pyridine-5-carbonyl]indol-1-yl]-2-methylcyclopropyl]-4H-1,2,4-oxadiazol-5-one, 0.5 Ca hydrate]
- Tmax, median (range) ([1]; STUDY A - 3 mg, Fasted): 8.0 (4.0-24.0) h
- AUC(0-inf) ([1]; STUDY A - 3 mg, Fasted): 362 ng·h/mL
- Cmax ([1]; STUDY A - 3 mg, Fasted): 13.4 ng/mL
- half-life ([1]; STUDY A - 3 mg, Fasted): 29.5 h
- AUC(0-inf) ([1]; STUDY A - 3 mg, Fed): 260 ng·h/mL
- Cmax ([1]; STUDY A - 3 mg, Fed): 10.1 ng/mL
- half-life ([1]; STUDY A - 3 mg, Fed): 27.9 h
- Tmax and T½ with or without food ([1]; study A): similar
- treatment emergent adverse events (TEAEs) severity ([1]; study A): mild
- AUC(0-∞) lower when administered with food ([1]; study A, single 3 mg dose): 24%
- Cmax lower in the fed state ([1]; study A, single 3 mg dose, fed vs fasted): 23%
- Tmax, median (range) ([2]; STUDY B - 16 mg (with titration), Fasted): 8.0 (4.0-16.0) h
- Tmax, median (range) ([2]; STUDY B - 16 mg (with titration), Fed): 8.0 (4.0-24.0) h
- AUC(0-t) [2, 4]: 1200 ng·h/mL
- Cmax [2, 4]: 80.5 ng/mL
- half-life ([2]; human, in vivo, oral, 16 mg, STUDY B - 16 mg (with titration), Fasted, read-out: T1/2, geometric mean (range) (converted)): 26 h
- AUC(0-t) [2, 5]: 1050 ng·h/mL
- Cmax [2, 5]: 67.5 ng/mL
- TEAE decreased appetite ([2]; study B): 69.7%
- TEAE nausea ([2]; study B): 48.5%
- TEAE vomiting ([2]; study B): 45.5%
- TEAEs occurrence over dosing ([2]; study B): occurred most often with the starting dose and decreased with dose escalation
- Tmax and T½ with or without food ([2]; study B): similar
- treatment emergent adverse events (TEAEs) severity ([2]; study B): mild
- AUC(0-24) lower when administered with food ([2]; study B, 16 mg daily dose): 18%
- Cmax lower in the fed state ([2]; study B, 16 mg daily dose, fed vs fasted): 21%
- percentage of patients who attained an HbA1c of 7% or less ([3]; across OFG dose groups): 65.2% to 95.8
- most common adverse events ([3]; in vivo): gastrointestinal, mild to moderate in severity
- pulse rate changes from baseline ([3]; in vivo): +3.0 to +6.1 bpm
- systolic or diastolic blood pressure compared with dulaglutide or placebo ([3]; in vivo): no statistically significant differences
- fasting glucose ([3]; versus placebo): significant improvements versus placebo
- mean changes from baseline in body weight ([3]; week 26, OFG 3 mg): -3.7 kg
- body weight ETD versus dulaglutide ([3]; week 26, OFG 12 mg): -2.6 kg
- body weight ETD versus placebo ([3]; week 26, OFG 12 mg): -4.3 kg
- mean changes from baseline in body weight ([3]; week 26, OFG 12 mg): -6.5 kg
- body weight ETD versus dulaglutide ([3]; week 26, OFG 24 mg): -5.9 kg
- body weight ETD versus placebo ([3]; week 26, OFG 24 mg): -7.6 kg
- mean changes from baseline in body weight ([3]; week 26, OFG 24 mg): -9.7 kg
- body weight ETD versus dulaglutide ([3]; week 26, OFG 36 mg): -5.7 kg
- body weight ETD versus placebo ([3]; week 26, OFG 36 mg): -7.4 kg
- mean changes from baseline in body weight ([3]; week 26, OFG 36 mg): -9.5 kg
- body weight ETD versus dulaglutide ([3]; week 26, OFG 45 mg): -6.2 kg
- body weight ETD versus placebo ([3]; week 26, OFG 45 mg): -7.9 kg
- mean changes from baseline in body weight ([3]; week 26, OFG 45 mg): -10.1 kg
- mean change in HbA1c from baseline ([3]; week 26, across OFG dose groups): −0.77% to −1.67

Molecule: dulaglutide [reference compound]
- percentage of patients who attained an HbA1c of 7% or less ([3]; dulaglutide 1.5 mg): 64.1%
- pulse rate changes from baseline ([3]; in vivo): +2.3 bpm
- mean changes from baseline in body weight ([3]; week 26, dulaglutide): -3.9 kg
- mean change in HbA1c from baseline ([3]; week 26, dulaglutide 1.5 mg): −1.1%

From patent US20260207564A1, “DOSAGE REGIME OF ORFORGLIPRON FOR TREATING A SUBJECT WITH TYPE 2 DIABETES (T2D), OBESITY, OR OVERWEIGHT WITH AT LEAST ONE WEIGHT RELATED COMORBIDITY” (Eli Lilly and Company, priority 2022, published 2026)
